Results published in patent publication US9315494B2, “Alkyl-amide-substituted pyridyl compounds useful as modulators of IL-12, IL-23 and/or IFNα responses” (Bristol-Myers Squibb Company, priority 2012, dated 2016).

How the values were obtained:
[1] = molecular target: T1, recombinantly expressed His-tagged protein corresponding to amino acids 575-869 of human Tyk2 (Homo sapiens, UniProt P29597); test: Probe displacement assay (scintillation proximity, [3H] probe); type: binding; conditions: 2.5 nM Tyk2 (575-869), 40 nM radiolabeled probe, 30 minutes at room temperature
T1 construct: corresponding to amino acids 575-869 of human Tyk2; made in house
T1 sequence (P29597 575-869): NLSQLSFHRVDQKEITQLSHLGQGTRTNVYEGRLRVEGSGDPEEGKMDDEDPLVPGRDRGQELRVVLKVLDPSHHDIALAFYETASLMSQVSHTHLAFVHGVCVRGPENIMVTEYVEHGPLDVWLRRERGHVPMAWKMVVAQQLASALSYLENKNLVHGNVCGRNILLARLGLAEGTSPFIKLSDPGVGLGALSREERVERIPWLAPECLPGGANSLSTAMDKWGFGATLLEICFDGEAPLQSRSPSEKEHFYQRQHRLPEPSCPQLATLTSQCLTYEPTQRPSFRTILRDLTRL
Description: The probe displacement assay is conducted as follows: In a […], test compounds along with recombinantly expressed His-tagged protein corresponding to amino acids 575-869 of human Tyk2 (sequence shown below) at 2.5 nM, 40 nM ((R)-N-(1-(3-(8-methyl-5-(methylamino)-8H-imidazo[4,5-d]thiazolo[5,4-b]pyridin-2-yl)phenyl)ethyl)-2-([^3H]methylsulfonyl)benzamide) (preparation described below) and 80 μg/mL Copper His-Tag scintillation proximity assay beads (Perkin Elmer, Catalog #RPNQ0095) in 50 mM HEPES, pH 7.5, containing 100 μg/mL bovine serum albumin and 5% DMSO were incubated for 30 minutes at room temperature. The amount of radiolabeled probe (preparation described below) bound to Tyk2 was then quantified by scintillation counting, and the inhibition by the test compound calculated by comparison to wells either with no inhibitor (0% inhibition) or without Tyk2 (100% inhibition).
Protein Sequence of recombinant Hig-tagged Tyk2 (575-869):
The preparation of radiolabeled probe, (R)-N-(1-(3-(8-methyl-5-(methylamino)-8H-imidazo[4,5-d]thiazolo[5,4-b]pyridin-2-yl)phenyl)ethyl)-2-([^3H]methylsulfonyl)benzamide, was performed as described below: […]

[2] = test system: IFNα-stimulated STAT-dependent luciferase reporter in Kit225 T cells; test: Kit225 T cell assay, IFNα stimulated STAT-dependent luciferase reporter; type: cell-based, human; conditions: Kit225 T cells, 200 U/mL human recombinant IFNα, 5-6 hours, luciferase; read-out: IFNα (Kit225 T Cell Inhibition Data)
Summary of the method: (§1)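 Stimulus was either 200 U/mL human recombinant IFNα or 20 ng/mL IL-23, applied for 5-6 h to reporter-bearing Kit225 T cells grown in RPMI/10% FBS. Luciferase expression then quantified by luminescent assay.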

[3] = test system: IL-23-stimulated STAT-dependent luciferase reporter in Kit225 T cells; test: Kit225 T cell assay, IL-23 stimulated STAT-dependent luciferase reporter; type: cell-based, human; conditions: Kit225 T cells, 20 ng/mL human recombinant IL-23, 5-6 hours, luciferase; read-out: IL23 (Kit225 T Cell Inhibition Data)
Summary of the method: as §1

Compound | EC50 [1] | IC50 [2] | IC50 [3]
CNC(=O)c1cnc(Nc2ccc(S(C)(=O)=O)cn2)cc1Nc1ccccc1S(C)(=O)=O [Example 61] | 16.4 nM | 1030 nM | 3530 nM
CNC(=O)c1cnc(Nc2cc(C)c(F)cn2)cc1Nc1cccc(-c2ccn(C)n2)c1OC [Example 391] | 6 nM | 10 nM | 9.66 nM
[2H]C([2H])([2H])NC(=O)c1cnc(Nc2cc(C)c(C#N)c(C)n2)cc1Nc1ccccc1S(C)(=O)=O [Example 438] | 11.5 nM | 80 nM | 150 nM
CNC(=O)c1cnc(Nc2cc(C)nc(C)n2)cc1Nc1cccc(-c2ccn(C)n2)c1OC [Example 393] | 3.5 nM | 2.86 nM | 5.83 nM
CNC(=O)c1cnc(Nc2ccc(C#N)c(C)n2)cc1Nc1ccc(F)cc1OC [Example 152] | 40.6 nM | 370 nM | 499 nM
CNC(=O)c1cnc(Nc2ccc(O)cn2)cc1Nc1ccccc1C(N)=O [Example 81] | 22.7 nM | 4490 nM | 5580 nM
